Experimental data published in patent US5716964A, “Tetrazolyl substituted imidazo[1,2-a]pyridinylalkyl compounds for treatment of neurotoxic injury” (G.D. Searle & Co., priority 1995, dated 1998).
Counter-ions that a name gives are not always drawn. One block for each compound: values may come before it.

Legend:
[1] = test system: NMDA; details: Murphy et al. 1987; cited from earlier work
[2] = molecular target: AMPA (QUIS) receptor; assay: [3H]AMPA (QUIS) binding assay; details: [3H]AMPA 10 nM, 100 mM KSCN, SPM, 0-4 °C, 10 min; read-out: Ki IC50 Binding, AMPA
Protocol: Synaptic plasma membranes (SPM) were prepared as previously described [Monahan, J. B. and Michel, J., "Identification and Characterization of an N-methyl-D-aspartate-specific L[^3 H]glutamate Recognition Site in Synaptic Plasma Membranes, J. Neurochem., 48, 1699-1708 (1987)]. The SPM were stored at a concentration of 10-15 mg/ml in 0.32M sucrose, 0.5 mM EDTA, 1mM MgSO4, 5 mM Tris/SO4, pH 7.4, under liquid nitrogen. The identity and purity of the subcellular fractions were confirmed by both electron microscopy and marker enzymes. Protein concentrations were determined by using a modification of the method of Lowry [Ohnishi, S. T. and Barr, J. K., "A Simplified Method of Quantitating Proteins Using the Biuret and Phenol Reagents", Anal. Biochem., 86, 193-197 (1978)]. The SPM were treated identically for the [^3 H]AMPA (QUIS), [^3 H]kainate and sodium-dependent L-[^3 H]-glumatate binding assays. The SPM were thawed at room temperature, diluted twenty-fold with 50 mM Tris/acetate, pH 7.4, incubated at 37° C. for 30 minutes, and centrifuged at 100,000 g for 15 minutes. The dilution, incubation, and centrifugation was repeated a total of three times. Prior to use in the NMDA specific L-[^3 H]-glutamate binding assay the SPM were thawed, diluted twenty fold with 50 mM Tris/acetate, pH 7.4 containing 0.04% (v/v) Triton X-100, incubated for 30 minutes at 37° C. and centrifuged as described above. The Triton X-100 treated membranes were washed with 50 mM Tris/acetate, pH 7.4 and centrifuged at 100,000 g for 15 minutes a total of four times. […] The basic procedure for the receptor subclass binding assays was similar. This general method involved adding the radioligand (12.5 nM L-[^3 H]glutamate; 0.5 nM [^3 H]kainate or 10 nM [^3 H]AMPA) to the appropriate concentration of the test compound and initiating the assay by the addition of ice cold synaptic plasma membranes (0.2-0.45 mg). The binding assays were performed in 1.5 mL centrifuge tubes with the total volume adjusted to 1.0 mL. Additions of test compounds were made in 50 mM Tris/acetate, pH 7.4 and incubations were carried out at 0°-4° C. The incubation time for the NMDA and the AMPA binding assays was 10 minutes, for the kainate binding assay 60 minutes and for the sodium-dependent glutamate binding assay 15 minutes. The AMPA binding assay contained 100 mM KSCN and the sodium-dependent glutamate binding assay contained 150 mM sodium acetate in addition to the previously described reagents. To terminate the incubation, the samples were centrifuged for 15 minutes at 12,000 g and 4° C. in a Beckman Microfuge 12. The supernatant was aspirated and the pelleted membranes dissolved in Beckman BTS-450 tissue solubilizer for a minimum of 6 hours at room temperature. Beckman MP scintillation cocktail containing 7 mL/l acetic acid was then added and the samples counted on a Beckman LS 5800 or 3801 liquid scintillation counter with automatic corrections for quenching and counting efficiency. Nonspecific binding was defined as the residual binding in the presence of either excess L-glutamate (0.1-0.4 mM), kainate (0.01 mM), or NMDA (0.5 mM), and was 15-25% of the total binding in the NMDA binding assay, 19-27% in the AMPA binding assay, 20-30% in the kainate binding assay and 10-15% in the sodium-dependent binding assay. Radioligand binding to the synaptic plasma membranes was analyzed using Scatchard and Hill transformations and the Ki values of the compounds determined using logit-log transformations. Calculations and regression analysis were performed using templates developed for Lotus 1, 2, 3 as previously described [Pullan, L. M. "Automated Radioligand Receptor Binding Analysis with Templates for Lotus", Computer Appln. Biosci., 3, 131 (1987)]. Binding results are reported in Table I for example compounds of the invention.

[3] = test system: mice (motor function); assay: Inverted screen test for motor impairment; type: in vivo, mouse (CD-1)
Excerpt: (§1) 6, 351-353 (1977)]. […] The screens were then slowly inverted. […] The current was held constant at 15 mA. […] There were 10 mice in each treatment group.

[4] = test system: Mongolian gerbils, CA1 region of the hippocampus; assay: Forebrain ischemia assay (bilateral carotid occlusion, CA1 hippocampal neuron count); type: in vivo, Mongolian gerbil; details: vs control, Mann-Whitney U test
Protocol: This assay was used to determine the extent of protection afforded by compound of the invention to neural brain cells subjected to ischemic conditions. Male Mongolian gerbils, 50-70 gm, were used as subjects. Compound No. 7 (30 mg/kg) was injected i.p. 30 minutes prior to carotid occlusion into 6 gerbils […]. In preparation for surgical procedures, the animals were lightly anesthetized with methoxyflurane and placed upside down on a heated pad with their snout within a nosecone. A 70:30 mixture of nitrous oxide and oxygen containing 0.5% halothane was circulated through the nosecone to provide continuous anesthesia throughout the surgical procedure. A midline incision was made in the neck and the carotid arteries were exposed. A length of suture thread was placed under each carotid. […] Quantification of the resulting lesion is made by counting the pyramidal cell somata in a 0.5 mm length of CAl of the hippocampus on the section corresponding to P 1.7 mm in the gerbil brain atlas.
Normal cell count in this region of the hippocampus in unoperated gerbils is 146±2. The effects of compound of Ex. #7 were assessed by comparing the number of neural cells found in the hippocampus of subjects treated with Ex. #7 compound with the cell number found in the appropriate control groups. […]

[5] = test system: cGMP levels in cerebellum; assay: Effect on cGMP levels in cerebellum; type: in vivo, mouse (Swiss-Webster); details: s.c.
Protocol: The purpose of this assay is to determine the extent of in vivo bioavailability and the potency as an NMDA antagonist of compound of the invention as compared to known NMDA antagonists, namely, 3(2-carboxypiperizine-4-yl)propyl-1-phosphonic acid (CPP~ and cis-4-phosphonomethyl-2-piperidinecarboxylic acid (CGS 19755). Male Swiss-Webster mice (17-24 g were injected sub-cutaneously (s.c.) with compound of the invention and the known NMDA antagonist standards 30 minutes prior to sacrifice by focussed microwave irradiation. Groups consisted of 7-10 mice. Compounds of Ex. #7 was dissolved in isotonic saline and all compounds were administered in a volume of 0.2 ml per mouse. Cerebella samples were extracted in IN HCl. Hydrochloric acid in extracts of the cerebellum were freeze-dried for assay of cGMP with a commercial RIA kit (NEN). Statistics (Dunett's t-test) were performed as described previously [P. L. Wood et al., Neurochem, 19, 975-982 (1980)]. ED50 values were calculated from log-logit transformation of the dose-response data.

[6] = test system: mice (tonic hindlimb extensor seizures); assay: Anticonvulsant assay (electroconvulsive shock, tonic hindlimb extensor seizures); type: in vivo, mouse (CD-1); details: s.c., 30 min prior to ECS
Excerpt: as §1

[7] = test system: TCP (1-[1-(2-thienyl)cyclohexyl]piperidine) binding in rat brain synaptic membranes; assay: TCP modulation assay ([3H]TCP binding); details: printed in the column TCP Ki IC50
Protocol: The effect on the TCP (1-[1-(2-thienyl)cyclohexyl]piperidine) binding was measured in rat brain synaptic membranes (SPM) prepared as previously described [J. B. Monahan & J. Michel; J. Neurochem. 48:1699-1708 (1987)]. Prior to their use in the binding assay, frozen SPM were thawed, diluted twenty fold with 50 mM Tris/acetate (pH 7.4 containing 0.04% (v/v) Triton X-100), incubated for 30 min. at 37° C. and centrifuged at 95,000×g for 15 min. The Triton X-100 treated SPM were washed with 5 mM Tris/HCl, pH 7.4 and centrifuged a total of six times. The compound of Example #7 was incubated at different concentrations with SPM (0.2-0.4 mg protein) and 2 nM tritiated TCP, in a total volume of 0.5 ml of 5 mM Tris/HCl buffer pH 7.4 at 25° C. for 60 min. The samples were filtered through glass fiber filters (Schleicher & Schuell #32) which have been pretreated with 0.05% (v/v) polyethylenimine, washed 4 times with 2 ml of ice-cold 5 mM Tris/HCl buffer, and then counted on a Beckman LS 5800 liquid scintillation counter with automatic corrections for quenching and counting efficiency. Inhibition of TCP binding was measured as a decrease in the binding in the presence of 0.05 mM L-glutamate. Non-specific binding was defined as the residual binding in the presence of […] phencyclidine.

- Ki [2]: > 300 µM
SMILES: O=C(O)c1cn2cc(CP(=O)(O)O)ccc2n1 [Example 13, 6-(phosphonomethyl)imidazo[1,2-a]pyridine-2-carboxylic acid]

- Ki [2]: > 300 µM
SMILES: O=C(O)c1cn2ccc(CP(=O)(O)O)cc2n1 [Example 18, 7-(phosphonomethyl)imidazo[1,2-a]pyridine-2-carboxylic acid]

- Ki [2]: > 300 µM
SMILES: O=C(O)c1cn2cccc(CP(=O)(O)O)c2n1 [Example 23, 8-(phosphonomethyl)imidazo[1,2-a]pyridine-2-carboxylic acid]

More lines, now with the values behind:

SMILES: O=C(O)C1CN(CCCP(=O)(O)O)CCN1 (stereo not drawn) [CPP, 3-(2-carboxypiperazin-4-yl)propyl-1phosphonic acid]
- NMDA antagonism, in words [1]: potent and selective NMDA antagonist

SMILES: O=C(O)c1cn2c(CP(=O)(O)O)cccc2n1 [Example 7, 5-(phosphonomethyl)imidazo[1,2-a]pyridine-2-carboxylic acid]
- Ki [2]: > 300 µM
- Exhibiting Motor Impairments ([3]; 10 mg/kg s.c.): 30 % of Mice
- Exhibiting Motor Impairments ([3]; 32 mg/kg s.c.): 50 % of Mice
- Exhibiting Motor Impairments ([3]; 56 mg/kg s.c.): 70 % of Mice
- Exhibiting Motor Impairments ([3]; 100 mg/kg s.c.): 90 % of Mice
- impairment of motor function, in words ([3]; s.c., inverted screen): impaired motor function in a similar dose range
- hippocampal cell loss after ischemia, in words [4]: significantly reduced
- brain bioavailability (decrease of cGMP in mouse cerebellum), in words [5]: brain bioavailable
- potency compared with CPP, in words ([5]; decrease in cerebellar cGMP): in the same range of potency as the known NMDA antagonist CPP
- protection against tonic hindlimb extensor seizures, in words [6]: protected against tonic hindlimb extensor seizures in a dose-dependent fashion

SMILES: O=C(O)c1cn2c(CP(=O)(O)O)c(Cl)ccc2n1 [Example 30, 6-chloro-5-(phosphonomethyl)imidazo[1,2-a]pyridine-2-carboxylic acid]
- Ki [2]: > 300 µM

SMILES: O=C(O)c1cn2c(C(O)P(=O)(O)O)cccc2n1 (stereo not drawn) [Example 57, 5-(hydroxyphosphonomethyl)imidazo[1,2-a]pyridine-2-carboxylic acid, monohydrochloride]
- Ki [2]: > 300 µM
- TCP binding, result in words [7]: antag.

SMILES: Cc1c(C(=O)O)nc2c(CP(=O)(O)O)cccn12 [Example 67, 3-methyl-8-(phosphonomethyl)imidazo[1,2-a]pyridine-2-carboxylic acid, monohydrochloride]
- Ki [2]: > 300 µM
